Test results as given in patent publication US20120322699A1, “Method of Preventing Scale Formation During Enhanced Oil Recovery” (Chevron U.S.A. Inc., priority 2011, published 2012).

Tests used:
[1] = Final bottle tests of formulations at lower agent concentrations with scale inhibitors; type: physicochemical
Protocol: Based on the above results, two commercial scale inhibitors were combined in synthetic brine with the metal complexing agents. The pH of the solutions was raised by addition of 1.0M NaOH to simulate the basic environment during an alkaline flood. The following procedure was used to prepare the aqueous solutions: • 1. Synthetic field brine was prepared by temporarily excluding the HCO3^−. • 2. Scale inhibitor was added and the solution was allowed to equilibrate after thorough mixing. • 3. Metal complexing agent was added to the brine above in concentrations near half of the stoichiometrically required amount and the solution was allowed to equilibrate after thorough mixing. • 4. NaHCO3 was added and the brine solutions were equilibrated. • 5.

[2] = Bottle test of scale prevention capacity of metal complexing agents; type: physicochemical
Protocol: Scale prevention capacity of the metal complexing agents were then tested using the following bottle test procedure: • 1. Synthetic field brine was prepared with NaCl and NaHCO3 (constituents of the brine) but CaCl2 and MgCl2 content was temporarily withheld to avoid premature scaling. • 2. Metal complexing agent was added to the brine above in a stoichiometrically required amount and at higher concentrations and the solution was allowed to equilibrate after thorough mixing. • 3. CaCl2 and MgCl2 were added and the brine solutions were equilibrated. • 4. In a preliminary test, the impact of pH alone was evaluated. […] If no scale was observed, step 4 was repeated with addition of Na2CO3.

[3] = Initial screening of complexing agents and scale inhibitors with synthetic brine; type: physicochemical; settings: for Maximum pH: complexing agents, synthetic brine 1,000 ppm Ca2+/Mg2+, 450 ppm HCO3-
Protocol: Eight different metal complexing agents and five commercial scale inhibitors were tested according to known laboratory methods with a synthetic brine containing 1,000 ppm of divalent cation (Ca^2+/Mg^2+) and 450 ppm of HCO3^−. Among the complexing agents tested, six were organic ligands with carboxylate moieties and two were inorganic phosphates. The five scale inhibitors tested were commercial products supplied by Nalco Chemicals based on phosphonate, acrylate and sulfonate.

[4] = Initial bottle tests with BASF complexing agents without changing the pH; type: physicochemical; settings: equimolar concentration (7,350 ppm) with the calcium ions, hard brine
Text: The initial bottles tests were designed at the reported calcium binding capacity of the agents without changing the pH.

[5] = at 25° C.; cited from earlier work
[6] = agent 1.1 %, alkali Na2B2O4, pH 9.97
[7] = agent 1.1 %, alkali Na2B2O4, pH 10.10
[8] = agent 1.1 %, alkali Na2B2O4, pH 10.15
[9] = agent 1.1 %, alkali Na2CO3, pH 10.60
[10] = agent 1.1 %, alkali Na2CO3, pH 10.69
[11] = agent 1.1 %, alkali Na2CO3, pH 10.77
[12] = agent 0.8 %, alkali Na2B2O4, pH 10.10
[13] = agent 1.5 %, alkali Na2B2O4, pH 10.10
[14] = agent 1.5 %, alkali Na2CO3, pH 10.10
[15] = agent 1.5 %, alkali NaOH, pH 10.20
[16] = agent 1.5 %, alkali NaOH, pH 8.80

O=C(O)CN(CCN(CC(=O)O)CC(=O)O)CC(=O)O [EDTA, ethylenediaminetetraacetic acid]
complexing agent concentration when used with scale inhibitor ([1]; in combination with 200 ppm VX9400): 7,500 ppm

CC(=O)ON(CCN(OC(C)=O)OC(C)=O)OC(C)=O.[Na] [EDTA-Na4, sodium ethylenediamine tetraacetate]
Status (next day) [2, 6]: clear
Status (same day) [2, 6]: clear
Status (next day) [2, 7]: clear
Status (same day) [2, 7]: clear
Status (next day) [2, 8]: clear
Status (same day) [2, 8]: clear
Status (next day) [2, 9]: clear
Status (same day) [2, 9]: clear
Status (next day) [2, 10]: clear
Status (same day) [2, 10]: clear
Status (next day) [2, 11]: clear
Status (same day) [2, 11]: clear
pH value up to which effective ([3]; 11,000 ppm in hard field brine (equimolar Ca:EDTA)): ≤ 10.7
Maximum pH [3]: 10.7

CC(C(=O)O)N(CC(=O)O)CC(=O)O (stereo not shown) [MGDA, methylglycinediacetic acid]
pH value up to which scaling prevented [4]: ≤ 9.9
complexing agent concentration when used with scale inhibitor ([1]; in combination with 500 ppm VX9400): 5,500 ppm

O=C([O-])CN(CC(=O)[O-])CC(=O)[O-].[Na+].[Na+].[Na+] [NTA-Na3, sodium nitrilotriacetate]
Status (next day) ([2]; agent 0.8 %, no alkali added): scale
Status (same day) ([2]; agent 0.8 %, no alkali added): scale
Status (next day) ([2]; agent 1.1 %, no alkali added): scale
Status (same day) ([2]; agent 1.1 %, no alkali added): scale
Status (next day) ([2]; agent 1.5 %, no alkali added): scale
Status (same day) ([2]; agent 1.5 %, no alkali added): scale

O=C([O-])CC(O)(CC(=O)[O-])C(=O)[O-].[Na+].[Na+].[Na+] [Sodium citrate, sodium citrate]
overall assessment from bottle test results [2]: not a successful selection
Status (next day) [2, 12]: scale
Status (same day) [2, 12]: clear
Status (next day) [2, 13]: scale
Status (same day) [2, 13]: clear
Status (next day) [2, 14]: scale
Status (same day) [2, 14]: scale

O.O=C([O-])/C=C\C(=O)[O-].[Na+].[Na+] [Sodium maleate, sodium maleate monohydrate]
overall assessment from bottle test results [2]: promising results
Status (next day) [2, 15]: clear
Status (same day) [2, 15]: clear
Maximum pH [3]: 10.2

O=P(O)(O)OP(=O)(O)OP(=O)(O)O [Sodium tripolyphosphate]
water solubility [5]: 14.5 g/100 mL
Status (next day) ([2]; agent 1.15 %, no alkali added): scale
Status (same day) ([2]; agent 1.15 %, no alkali added): scale
Status (next day) ([2]; agent 1.5 %, no alkali added): scale
Status (same day) ([2]; agent 1.5 %, no alkali added): scale
Status (next day) ([2]; agent […], no alkali added): scale
Status (same day) ([2]; agent […], no alkali added): scale

O=P([O-])([O-])OP(=O)([O-])[O-].[K+].[K+].[K+].[K+] [Tetrapotassium pyrophosphate]
Status (next day) [2, 16]: scale
Status (same day) [2, 16]: scale
